Laboratory results reported in US10610555B2, “Method for alleviating osteoarthritis by using composite (HL-Joint 100) of achyranthes bidentata, eucommin ulmoides oliver and pomegranate extracts, which has antiinflammatory effect caused by COX2 and PGE2 inhibition, cartilage protective effect caused by MMP-2 and -9 inhibition and cartilage …” (HLSCIENCE CO., LTD., priority 2015, dated 2020).

Columns and labels:
Assay type in all cases: in vivo
[1] = test system: chondrogenesis-related mRNAs (collagen type II, SOX9 and aggrecan); test: Osteoarthritis rat model: chondrogenesis-related mRNA expression; settings: diclofenac subcutaneous
Protocol: (§1) The osteoarthritis-improving effect of the single or mixed formula of the pomegranate concentrate powder (PCP), the eucommia bark water extract powder (EC) and the achyranthis radix water extract powder (AR) was evaluated. As the representative osteoarthritis (OA) experimental animal model, rats with osteoarthritis (OA) induced by anterior cruciate ligament transaction and partial medial meniscectomy were used [Kim et al., 2012; Kang et al., 2014a; Moon et al., 2014; Choi et al., 2015]. […] In addition, the change in articular cartilage thickness and the number of cyclooxygenase (COX)-2- and tumor necrosis factor (TNF)-α-immunopositive cells in the tibial articular cartilage was monitored [Moore et al. 2005; Kim et al., 2012; Kang et al., 2014a; Choi et al., 2015]. Through this experiment, the anti-inflammatory effect and cartilage-regenerating effect of the pomegranate concentrate powder, the eucommia bark extract and the achyranthis radix extract were evaluated.
(§2) An adequate amount of PCP, EC or AR was dissolved in sterilized distilled water and orally administered at a dosage of 5 mL/kg from 7 days after the osteoarthritis (OA) surgery once a day for 28 days. That is to say, each of the single formulas of PCP, EC and AR and the mixed formulas of PCP and EC:AR (1:1, 1:2, 1:4, 1:6, 1:8, 2:1, 4:1, 6:1 and 8:1) was orally administered at a dosage of 200 mg/kg for 28 days. […]

[2] = test system: rats with surgically-induced osteoarthritis (OA); test: Osteoarthritis rat model: knee joint thickness; settings: 200 mg/kg oral (diclofenac 2 mg/kg s.c.); vs OA control group
Protocol: as §1, §2

[3] = test system: collagen type II mRNA; test: Osteoarthritis rat model: collagen type II mRNA expression in articular cartilage and joint capsule; settings: OA rats, 200 mg/kg oral 28 days (diclofenac 2 mg/kg s.c.), mean ± SD
Protocol: as §1
An adequate amount of PCP, EC or AR was dissolved in sterilized distilled water and orally administered at a dosage of 5 mL/kg from 7 days after the osteoarthritis (OA) surgery once a day for 28 days. That is to say, each of the single formulas of PCP, EC and AR and the mixed formulas of PCP and EC:AR (1:1, 1:2, 1:4, 1:6, 1:8, 2:1, 4:1, 6:1 and 8:1) was orally administered at a dosage of 200 mg/kg for 28 days. For the sham surgery (sham) and osteoarthritis (OA) control groups, only sterilized distilled water was orally administered instead of the test substances. 2 mg of diclofenac sodium (Wako Pure Chemical Ind. Ltd., Osaka, Japan) dissolved in 5 mL of sterilized physiological saline was subcutaneously administered into the back skin at a dosage of 5 mL/kg (2 mg/kg) from 7 days after the osteoarthritis (OA) surgery once a day for 28 days. The administration dosage was set to 2,000 mg/60 kg×6=200 mg/kg, corresponding to 6 times the expected dosage for human (2,000 mg) in consideration of the body surface area of the rat. […]

[4] = test system: rats with surgically-induced osteoarthritis (OA); test: Osteoarthritis rat model: BrdU-immunopositive cells (cell proliferation); settings: vs OA control group
Protocol: as §1, §2

## O=C(O)Cc1ccccc1Nc1c(Cl)cccc1Cl [Diclofenac, diclofenac sodium]
[1]
  expression of collagen type II, SOX9 and aggrecan mRNAs in the femoral and tibial articular cartilage: increased expression
[2]
  knee joint thickness: significant (p<0.01 or p<0.05) decrease in knee joint thickness
[3]
  Collagen type II mRNA expressions, Femur AC: 0.69 ± 0.10^ab
  Collagen type II mRNA expressions, Tibia AC: 0.64 ± 0.11^ij
[3]; SM not defined, text speaks of joint capsule
  Collagen type II mRNA expressions, SM: 2.74 ± 0.95^ij
[4]
  number of BrdU-immunopositive cells in the joint capsule: decrease in the number of BrdU-immunopositive cells in the joint capsule
